This is an account of results in ChEMBL document CHEMBL1141638, “Influence of sulfur oxidation state and steric bulk upon trifluoromethyl ketone (TFK) binding kinetics to carboxylesterases and fatty acid amide hydrolase (FAAH)” (Bioorg Med Chem, 2008).

SMILES strings stand for the structures.

Assay [1] addresses T1, Fatty-acid amide hydrolase 1 (Homo sapiens, UniProt O00519).
T1 sequence (O00519 whole entry): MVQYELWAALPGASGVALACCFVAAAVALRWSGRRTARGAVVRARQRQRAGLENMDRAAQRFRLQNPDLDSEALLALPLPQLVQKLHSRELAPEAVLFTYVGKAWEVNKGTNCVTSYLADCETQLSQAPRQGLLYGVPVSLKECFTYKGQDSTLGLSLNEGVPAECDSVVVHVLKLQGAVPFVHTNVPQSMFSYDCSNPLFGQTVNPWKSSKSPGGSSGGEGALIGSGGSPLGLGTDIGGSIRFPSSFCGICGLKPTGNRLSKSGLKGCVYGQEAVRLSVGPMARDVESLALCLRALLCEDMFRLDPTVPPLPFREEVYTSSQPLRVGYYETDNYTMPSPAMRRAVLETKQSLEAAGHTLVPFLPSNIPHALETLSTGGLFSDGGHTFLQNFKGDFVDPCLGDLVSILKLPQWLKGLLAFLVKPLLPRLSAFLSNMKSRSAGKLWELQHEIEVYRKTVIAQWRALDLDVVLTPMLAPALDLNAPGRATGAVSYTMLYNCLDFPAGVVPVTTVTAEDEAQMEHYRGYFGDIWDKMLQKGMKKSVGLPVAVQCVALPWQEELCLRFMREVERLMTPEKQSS
Description: Inhibition of human recombinant FAAH after 15 mins.

Assay [2] concerns the target T2, Liver carboxylesterase (Sus scrofa, UniProt Q29550).
T2 sequence (Q29550 whole entry): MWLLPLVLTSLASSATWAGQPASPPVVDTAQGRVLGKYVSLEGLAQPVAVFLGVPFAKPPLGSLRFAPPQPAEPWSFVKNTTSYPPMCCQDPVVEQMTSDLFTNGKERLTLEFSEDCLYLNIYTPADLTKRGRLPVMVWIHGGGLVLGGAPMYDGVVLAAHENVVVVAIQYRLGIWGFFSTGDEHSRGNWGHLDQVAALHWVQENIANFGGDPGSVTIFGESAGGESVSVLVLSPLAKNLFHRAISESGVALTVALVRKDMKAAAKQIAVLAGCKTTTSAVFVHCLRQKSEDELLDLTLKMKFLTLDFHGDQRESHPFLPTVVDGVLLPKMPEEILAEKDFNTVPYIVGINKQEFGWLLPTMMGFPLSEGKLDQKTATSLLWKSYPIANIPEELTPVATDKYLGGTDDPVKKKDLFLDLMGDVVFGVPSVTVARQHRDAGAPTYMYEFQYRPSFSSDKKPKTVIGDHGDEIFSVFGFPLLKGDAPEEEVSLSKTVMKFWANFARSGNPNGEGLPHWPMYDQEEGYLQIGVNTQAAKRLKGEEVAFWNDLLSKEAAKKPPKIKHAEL
Description: Inhibition of pig liver carboxylesterase after 5 mins.

Assay [3] has as its target T2, Liver carboxylesterase. Description: Inhibition of pig liver carboxylesterase after 15 mins.
The target in assay [4] is T1, Fatty-acid amide hydrolase 1. Description: Inhibition of human recombinant FAAH after 5 mins.
Assay [5] in a line: Inhibition of rabbit liver carboxylesterase after 15 mins. On the set-up: species or system Oryctolagus cuniculus.
Assay [6] addresses T3, Liver carboxylesterase 1 (Homo sapiens, UniProt P23141).
T3 sequence (P23141 whole entry): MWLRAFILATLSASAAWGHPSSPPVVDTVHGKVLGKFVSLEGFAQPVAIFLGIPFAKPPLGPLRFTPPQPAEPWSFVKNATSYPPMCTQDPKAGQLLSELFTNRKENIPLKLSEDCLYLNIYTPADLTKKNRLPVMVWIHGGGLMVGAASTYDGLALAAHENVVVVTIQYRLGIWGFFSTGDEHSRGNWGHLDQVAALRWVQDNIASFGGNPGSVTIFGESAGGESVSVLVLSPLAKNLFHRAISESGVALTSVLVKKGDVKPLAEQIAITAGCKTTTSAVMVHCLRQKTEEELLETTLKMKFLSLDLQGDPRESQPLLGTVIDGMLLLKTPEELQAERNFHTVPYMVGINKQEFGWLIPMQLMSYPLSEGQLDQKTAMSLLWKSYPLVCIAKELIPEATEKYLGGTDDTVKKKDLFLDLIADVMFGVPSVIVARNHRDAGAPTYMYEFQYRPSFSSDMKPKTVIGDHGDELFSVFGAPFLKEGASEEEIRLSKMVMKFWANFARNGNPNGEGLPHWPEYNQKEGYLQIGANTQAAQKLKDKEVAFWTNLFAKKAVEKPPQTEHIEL
Description: Inhibition of human recombinant carboxylesterase 1 after 5 mins.

Assay [7] can be described thus: Inhibition of rabbit liver carboxylesterase after 5 mins. On the set-up: species or system Oryctolagus cuniculus.
Assay [8] concerns the target T3, Liver carboxylesterase 1. Description: Inhibition of human recombinant carboxylesterase 1 after 15 mins.
For assay [9], the target named is T4, Juvenile hormone esterase (Manduca sexta, UniProt Q9GPG0).
T4 sequence (Q9GPG0 whole entry): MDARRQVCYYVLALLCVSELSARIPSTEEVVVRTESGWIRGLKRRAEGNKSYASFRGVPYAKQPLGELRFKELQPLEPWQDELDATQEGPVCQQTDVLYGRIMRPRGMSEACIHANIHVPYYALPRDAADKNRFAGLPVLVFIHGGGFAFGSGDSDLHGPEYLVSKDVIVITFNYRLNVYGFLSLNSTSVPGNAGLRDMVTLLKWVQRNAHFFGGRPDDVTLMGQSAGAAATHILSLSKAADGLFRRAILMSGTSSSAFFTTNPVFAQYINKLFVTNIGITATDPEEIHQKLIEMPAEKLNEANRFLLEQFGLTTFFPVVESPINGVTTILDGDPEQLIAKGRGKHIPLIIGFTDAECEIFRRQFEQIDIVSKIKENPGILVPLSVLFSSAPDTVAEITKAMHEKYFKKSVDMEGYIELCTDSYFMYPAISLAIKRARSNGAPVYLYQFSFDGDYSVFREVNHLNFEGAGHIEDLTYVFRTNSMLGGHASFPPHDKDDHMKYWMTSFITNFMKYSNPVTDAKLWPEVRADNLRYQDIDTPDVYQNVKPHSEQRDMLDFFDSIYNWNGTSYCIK
Description: Inhibition of Manduca sexta juvenile hormone esterase.

Assay [10] is described as follows: Inhibition of Manduca sexta juvenile hormone esterase […] mutant.

As for `CCCCCC[S+]([O-])CC(=O)C(F)(F)F` (stereo unspecified), the IC50 in assay [1] is > 40000 nM; against Liver carboxylesterase [2], 280 nM; against Liver carboxylesterase [3], 33 nM; in assay [4] it was > 40000 nM.
As to `CCCCCCS(=O)(=O)CC(=O)C(F)(F)F`, the IC50 in [1] was > 40000 nM; at Liver carboxylesterase [2] it was 470 nM; against Liver carboxylesterase [3] it was 100 nM; in assay [4] it was > 40000 nM.
Regarding `CCCCCCCCCCCCS(=O)(=O)CC(=O)C(F)(F)F`, the IC50 in [1] was determined as 280 nM; against Liver carboxylesterase [2] it was 37 nM; against Liver carboxylesterase [3], 46 nM; in assay [4] it was 250 nM.
For `CCCCCCCCCC[S+]([O-])CC(=O)C(F)(F)F` (stereo unspecified), in that order: 1350 nM, 5.5 nM, 3.2 nM and 760 nM.
Regarding `CCCCCCCC[S+]([O-])CC(=O)C(F)(F)F` (stereo unspecified), the IC50 in [1] was 13900 nM; in assay [5], 5 nM; on Liver carboxylesterase 1 [6] it was 30 nM; at Liver carboxylesterase [2] it was 200 nM; against Liver carboxylesterase [3] it was 23 nM; in assay [7], 16 nM. In addition, the IC50 was 5.5 nM at Liver carboxylesterase 1 [8] and 6500 nM in assay [4].
Turning to `CCCCCCCCCCSCC(=O)C(F)(F)F`, the IC50 came out at 170 nM in assay [1], 2.2 nM against Liver carboxylesterase [2], 1.3 nM against Liver carboxylesterase [3] and 120 nM in [4].
Consider `CCCCCCCCCCCCSCC(=O)C(F)(F)F`, for which the IC50 stood at 89 nM in assay [1], 12 nM against Liver carboxylesterase [2], 5.3 nM against Liver carboxylesterase [3] and 84 nM in assay [4].
For `CCCCCCCCCCS(=O)(=O)CC(=O)C(F)(F)F`, in that order: 3000 nM, 63 nM, 28 nM and 2200 nM.
For `CCCCCCCCCCCC[S+]([O-])CC(=O)C(F)(F)F` (stereo unspecified), in that order: 600 nM, 12 nM, 8.6 nM and 440 nM.
`CCCCCCCCS(=O)(=O)CC(=O)C(F)(F)F`: the IC50 came to 22500 nM in assay [1]; 35 nM in assay [5]; 18 nM at Liver carboxylesterase 1 [6]; 830 nM against Liver carboxylesterase [2]; 460 nM at Liver carboxylesterase [3]; 55 nM in assay [7]. For the same compound, the IC50 on Liver carboxylesterase 1 [8] came to 5.4 nM; in assay [4], 14800 nM.
For `CCCCSCC(=O)C(F)(F)F`, the IC50 in assay [1] was > 40000 nM; against Liver carboxylesterase [2], 20 nM; against Liver carboxylesterase [3], 4.5 nM; in assay [4], > 40000 nM.
With `CCCC[S+]([O-])CC(=O)C(F)(F)F` (stereo unspecified), the IC50 in [1] is > 40000 nM; against Liver carboxylesterase [2], 970 nM; against Liver carboxylesterase [3], 270 nM; in assay [4] it was > 40000 nM.
Turning to `CCCCCCSCC(=O)C(F)(F)F`, the concentration for half-maximal inhibition (IC50) was 2500 nM in [1], 7.5 nM at Liver carboxylesterase [2], 1.8 nM against Liver carboxylesterase [3] and 1950 nM in [4].
As for `CCCCCCCCCCC(=O)C(F)(F)F`, the IC50 in [9] turned out to be 530 nM; in assay [10], 1600 nM; in assay [1], 1800 nM; in [5], 14 nM; at Liver carboxylesterase 1 [6], 65 nM; against Liver carboxylesterase [2], 25 nM. For the same compound, the IC50 against Liver carboxylesterase [3] is 9.3 nM; in assay [7] it was 42 nM; on Liver carboxylesterase 1 [8], 30 nM; in [4], 1250 nM.
For `CCCCCCCCSCC(=O)C(F)(F)F`, the IC50 in [9] was found to be 22 nM; in [10], 330 nM; in [1] it was 300 nM; in [5] it was 1.9 nM; at Liver carboxylesterase 1 [6] it was 24 nM; against Liver carboxylesterase [2], 5.6 nM. For the same compound, the IC50 was found to be 2.4 nM at Liver carboxylesterase [3], 6.7 nM in assay [7], 13 nM on Liver carboxylesterase 1 [8] and 230 nM in assay [4].
Consider `O=C(C(=O)c1ccccc1)c1ccccc1` [BENZIL], for which the IC50 in assay [1] is > 40000 nM; in assay [5], 29 nM; against Liver carboxylesterase [2], 370 nM; against Liver carboxylesterase [3], 830 nM; in [7], 19 nM; in assay [4] it was > 40000 nM.
